Laboratory results: patent US8318723B2, “Pyrazine compounds, their use and methods of preparation” (Boehringer Ingelheim International GmbH, priority 2006, dated 2012)

Biological target: PIM-2 (Homo sapiens, UniProt Q9P1W9)
Assay: PIM-2 assay, IC50 determination (luciferase-luciferin ATP depletion, 10-point dose response)
Type: biochemical
Settings: for IC50: 10 nM PIM-2, 1 μM ATP, 50 μM peptide substrate, 15 minutes at room temperature

Chain of PIM-2 (Q9P1W9 whole entry): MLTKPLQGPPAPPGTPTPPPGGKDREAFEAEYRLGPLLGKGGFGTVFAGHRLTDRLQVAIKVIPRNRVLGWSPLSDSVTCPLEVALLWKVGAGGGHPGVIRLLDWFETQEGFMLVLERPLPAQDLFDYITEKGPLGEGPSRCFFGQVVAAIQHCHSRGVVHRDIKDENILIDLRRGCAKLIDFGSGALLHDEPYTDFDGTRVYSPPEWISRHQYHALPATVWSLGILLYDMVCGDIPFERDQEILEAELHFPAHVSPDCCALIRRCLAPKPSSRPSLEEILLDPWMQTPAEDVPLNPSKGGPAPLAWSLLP

IC50 [nM]	POC @ 5 μg/mL (percent of control at 5 μg/mL (final starting assay concentration of dose response)) [POC @ 5 μg/mL]	SMILES
385	–	CN1CCCN(c2cncc(-c3cncc(/C=C/C(=O)O)c3)n2)CC1 [compound 37, (E)-3-{5-[6-(4-Methyl-[1,4]diazepan-1-yl)-pyrazin-2-yl]-pyridin-3-yl}-acrylic acid]
880	–	CC(=O)N1CCCN(c2cncc(-c3cccc(/C=C/C(=O)O)c3)n2)CC1 [compound 31, (E)-3-{3-[6-(4-Acetyl-[1,4]diazepan-1-yl)-pyrazin-2-yl]-phenyl}-acrylic acid]
1700	–	O=C(O)/C=C/c1cccc(-c2cncc(N3CCOCC3)n2)c1 [compound 34, (E)-3-[3-(6-Morpholin-4-yl-pyrazin-2-yl)-phenyl]-acrylic acid]
230	–	O=C(O)/C=C/c1cccc(-c2cncc(N3CCCN(Cc4ccccc4)CC3)n2)c1 [compound 29, (E)-3-{3-[6-(4-Benzyl-[1,4]diazepan-1-yl)-pyrazin-2-yl]-phenyl}-acrylic acid]
140	–	NCCNc1cncc(-c2cccc(/C=C/C(=O)O)c2)n1 [compound 12, (E)-3-{3-[6-(2-Amino-ethylamino)-pyrazin-2-yl]-phenyl}-acrylic acid]
1400	–	COC(=O)/C=C/c1cccc(-c2cncc(N3CCCN(C)CC3)n2)c1 [compound 39, (E)-3-{3-[6-(4-Methyl-[1,4]diazepan-1-yl)-pyrazin-2-yl]-phenyl}-acrylic acid methyl ester]
150	–	CN1CCN(c2cncc(-c3cccc(/C=C/C(=O)O)c3)n2)CC1 [compound 26, (E)-3-[3-(4-Methyl-3,4,5,6-tetrahydro-2H-[1,2′]bipyrazinyl-6′-yl)-phenyl]-acrylic acid]
21	–	NCC1CCN(c2cncc(-c3cccc(/C=C/C(=O)O)c3)n2)CC1 [compound 22, (E)-3-{3-[6-(4-Aminomethyl-piperidin-1-yl)-pyrazin-2-yl]-phenyl}-acrylic acid]
185	–	O=C(O)/C=C/c1cccc(-c2cncc(N3CCCNCC3)n2)c1 [compound 27, (E)-3-[3-(6-[1,4]Diazepan-1-yl-pyrazin-2-yl)-phenyl]-acrylic acid]
115	–	NC1CCN(c2cncc(-c3cccc(/C=C/C(=O)O)c3)n2)CC1 [compound 25, (E)-3-{3-[6-(4-Amino-piperidin-1-yl)-pyrazin-2-yl]-phenyl}-acrylic acid]
1400	–	CN1CCCN(c2cncc(-c3cccc(CCC(=O)O)c3)n2)CC1 [compound 38, 3-[3-[6-(4-Methyl-[1,4]diazepan-1-yl)-pyrazin-2-yl]-phenyl]-propionic acid]
2400	–	CN1CCCN(c2cncc(-c3cccc(/C=C/C(=O)NS(C)(=O)=O)c3)n2)CC1 [compound 44, N-((E)-3-{3-[6-(4-Methyl-perhydro-1,4-diazepin-1-yl)-pyrazin-2-yl]-phenyl}-acryloyl)-methanesulfonamide]
1200	–	CN1CCCN(c2cncc(-c3cccc(/C=C/C(N)=O)c3)n2)CC1 [compound 40, (E)-3-{3-[6-(4-Methyl-[1,4]diazepan-1-yl)-pyrazin-2-yl]-phenyl}-acrylamide]
–	69	CN1CCCN(c2cncc(-c3cccc(/C=C/CO)c3)n2)CC1 [compound 41, (E)-3-{3-[6-(4-Methyl-[1,4]diazepan-1-yl)-pyrazin-2-yl]-phenyl}-prop-2-en-1-ol]
270	–	CN(C)C1CCN(c2cncc(-c3cccc(/C=C/C(=O)O)c3)n2)C1 (centres unmarked) [compound 30, (E)-3-{3-[6-(3-Dimethylamino-pyrrolidin-1-yl)-pyrazin-2-yl]-phenyl}-acrylic acid]
300	–	O=C(O)/C=C/c1cccc(-c2cncc(NCCO)n2)c1 [compound 17, (E)-3-{3-[6-(2-Hydroxy-ethylamino)-pyrazin-2-yl]-phenyl}-acrylic acid]

The remaining lines, values behind:

SMILES	IC50 [nM]	POC @ 5 μg/mL (percent of control at 5 μg/mL (final starting assay concentration of dose response)) [POC @ 5 μg/mL]
CC(=O)NCCNc1cncc(-c2cccc(/C=C/C(=O)O)c2)n1 [compound 21, (E)-3-{3-[6-(2-Acetylamino-ethylamino)-pyrazin-2-yl]-phenyl}-acrylic acid]	1020	–
O=C(O)/C=C/c1cccc(-c2cncc(N[C@H]3CC[C@H](O)CC3)n2)c1 [compound 3, (E)-3-{3-[6-(4-Hydroxy-cyclohexylamino)-pyrazin-2-yl]-phenyl}-acrylic acid]	265	–
CN1CCCN(c2cncc(-c3cccc(/C=C/C#N)c3)n2)CC1 [compound 42, (E)-3-{3-[6-(4-Methyl-[1,4]diazepan-1-yl)-pyrazin-2-yl]-phenyl}-acrylonitrile]	13000	–
O=C(O)/C=C/c1cccc(-c2cncc(NCC3CCNCC3)n2)c1 [compound 4, (E)-3-(3-{6-[(Piperidin-4-ylmethyl)-amino]-pyrazin-2-yl}-phenyl)-acrylic acid]	57	–
NC(=O)CCNc1cncc(-c2cccc(/C=C/C(=O)O)c2)n1 [compound 16, (E)-3-{3-[6-(2-Carbamoyl-ethylamino)-pyrazin-2-yl]-phenyl}-acrylic acid]	250	–
NCCCNc1cncc(-c2cccc(/C=C/C(=O)O)c2)n1 [compound 6, (E)-3-{3-[6-(3-Amino-propylamino)-pyrazin-2-yl]-phenyl}-acrylic acid]	27	–
CN(C)CCCN(C)c1cncc(-c2cccc(/C=C/C(=O)O)c2)n1 [compound 14, (E)-3-(3-{6-[(3-Dimethylamino-propyl)-methyl-amino]-pyrazin-2-yl}-phenyl)-acrylic acid]	370	–
NCCCCNc1cncc(-c2cccc(/C=C/C(=O)O)c2)n1 [compound 5, (E)-3-{3-[6-(4-Amino-butylamino)-pyrazin-2-yl]-phenyl}-acrylic acid]	22	–
CC(C)(CN)CNc1cncc(-c2cccc(/C=C/C(=O)O)c2)n1 [compound 7, (E)-3-{3-[6-(3-Amino-2,2-dimethyl-propylamino)-pyrazin-2-yl]-phenyl}-acrylic acid]	27	–
CN(C)CCNc1cncc(-c2cccc(/C=C/C(=O)O)c2)n1 [compound 9, (E)-3-{3-[6-(2-Dimethylamino-ethylamino)-pyrazin-2-yl]-phenyl}-acrylic acid]	99	–
CN(C)CCCNc1cncc(-c2cccc(/C=C/C(=O)O)c2)n1 [compound 8, (E)-3-{3-[6-(3-Dimethylamino-propylamino)-pyrazin-2-yl]-phenyl}-acrylic acid]	94	–
COCCCNc1cncc(-c2cccc(/C=C/C(=O)O)c2)n1 [compound 19, (E)-3-{3-[6-(3-Methoxy-propylamino)-pyrazin-2-yl]-phenyl}-acrylic acid]	480	–
CCNCCCNc1cncc(-c2cccc(/C=C/C(=O)O)c2)n1 [compound 11, (E)-3-{3-[6-(3-Ethylamino-propylamino)-pyrazin-2-yl]-phenyl}-acrylic acid]	120	–
O=C(O)/C=C/c1cccc(-c2cncc(NCCCO)n2)c1 [compound 18, (E)-3-{3-[6-(3-Hydroxy-propylamino)-pyrazin-2-yl]-phenyl}-acrylic acid]	310	–
CNCCCN(C)c1cncc(-c2cccc(/C=C/C(=O)O)c2)n1 [compound 10, (E)-3-(3-{6-[Methyl-(3-methylamino-propyl)-amino]-pyrazin-2-yl}-phenyl)-acrylic acid]	110	–
NC(=O)CNc1cncc(-c2cccc(/C=C/C(=O)O)c2)n1 [compound 15, (E)-3-{3-[6-(Carbamoylmethyl-amino)-pyrazin-2-yl]-phenyl}-acrylic acid]	84	–
